Literature values, collected in patent US20250345482A1, “3D PRINTED GALLIUM SCAFFOLD” (Northeast Ohio Medical University, priority 2024, published 2025).

Tests used:
[1] = tested on: NFAT2, TRAP, and c-Fos; settings: literature (Verron E et al. 2012)
[2] = tested on: osteoclast differentiation and function; settings: inventors' earlier publication (Ghanta P. et al. 2023)

| Structure (SMILES) | Effect on transcription factors responsible for osteoclast differentiation [1] | Osteoclast differentiation and function [2] |
| --- | --- | --- |
| O=[N+]([O-])[O-].O=[N+]([O-])[O-].O=[N+]([O-])[O-].[Ga+3] [gallium nitrate] | dose-dependent downregulation |  |
| CC(=O)/C=C(/C)[O][Ga]([O]/C(C)=C\C(C)=O)[O]/C(C)=C\C(C)=O [GaAcAc, gallium acetylacetonate] |  | effectively inhibited |
